Laboratory results taken from PubChem BioAssay (NCI).
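Here, GI50 denotes the concentration required for 50% inhibition of growth. Definition used: TGI = concentration required for complete inhibition of growth.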

Assays:
Experiment in all cases: DTP human tumour cell line panel, 384-well format
SK-MEL-28 melanoma = test system: SK-MEL-28 melanoma
MALME-3M melanoma = test system: MALME-3M melanoma
RPMI-8226 leukemia = test system: RPMI-8226 leukemia
SF-539 CNS = test system: SF-539 CNS
SK-MEL-5 melanoma = test system: SK-MEL-5 melanoma
UACC-62 melanoma = test system: UACC-62 melanoma
HOP-62 NSCLC = test system: HOP-62 NSCLC
SR leukemia = test system: SR leukemia
TK-10 renal = test system: TK-10 renal
HCT-15 colon = test system: HCT-15 colon
M14 melanoma = test system: M14 melanoma
BT-549 breast = test system: BT-549 breast
UACC-257 melanoma = test system: UACC-257 melanoma
NCI-H226 lung = test system: NCI-H226 lung
LOX IMVI melanoma = test system: LOX IMVI melanoma
HS 578T breast = test system: HS 578T breast
SNB-75 CNS = test system: SNB-75 CNS
SK-OV-3 ovarian = test system: SK-OV-3 ovarian
RXF 393 renal = test system: RXF 393 renal
NCI/ADR-RES ovarian = test system: NCI/ADR-RES ovarian
HCC-2998 colon = test system: HCC-2998 colon
UO-31 renal = test system: UO-31 renal
SF-295 CNS = test system: SF-295 CNS
SF-268 CNS = test system: SF-268 CNS
EKVX NSCLC = test system: EKVX NSCLC
NCI-H23 lung = test system: NCI-H23 lung
COLO 205 colon = test system: COLO 205 colon
HT29 colon = test system: HT29 colon
HL-60(TB) leukemia = test system: HL-60(TB) leukemia
MDA-MB-231 breast = test system: MDA-MB-231 breast
SW-620 colon = test system: SW-620 colon
MCF7 breast = test system: MCF7 breast
NCI-H322M lung = test system: NCI-H322M lung
MDA-MB-435 melanoma = test system: MDA-MB-435 melanoma
MOLT-4 leukemia = test system: MOLT-4 leukemia
HOP-92 NSCLC = test system: HOP-92 NSCLC
MDA-MB-468 breast = test system: MDA-MB-468 breast
SN12C renal = test system: SN12C renal
OVCAR-8 ovarian = test system: OVCAR-8 ovarian
OVCAR-4 ovarian = test system: OVCAR-4 ovarian
CAKI-1 renal = test system: CAKI-1 renal
ACHN renal = test system: ACHN renal
NCI-H460 NSCLC = test system: NCI-H460 NSCLC
KM12 colon = test system: KM12 colon
IGROV1 ovarian = test system: IGROV1 ovarian
A498 renal = test system: A498 renal
OVCAR-5 ovarian = test system: OVCAR-5 ovarian
NCI-H522 lung = test system: NCI-H522 lung
K-562 leukemia = test system: K-562 leukemia
PC-3 prostate = test system: PC-3 prostate
A549 NSCLC = test system: A549 NSCLC
OVCAR-3 ovarian = test system: OVCAR-3 ovarian
DU-145 prostate = test system: DU-145 prostate
SNB-19 CNS = test system: SNB-19 CNS
T-47D breast = test system: T-47D breast
786-0 renal = test system: 786-0 renal
CCRF-CEM leukemia = test system: CCRF-CEM leukemia

`Cc1cc2c(C(N)=O)cccc2n1-c1nc2c(c(NCc3ccccc3)n1)CCCN2` was tested, and the GI50 (SK-MEL-28 melanoma) was 177 nM, the TGI (SK-MEL-28 melanoma) was 318 nM and the GI50 (MALME-3M melanoma) was 151 nM. The TGI (MALME-3M melanoma) was 284 nM, the GI50 (RPMI-8226 leukemia) was 20.8 nM and the TGI (RPMI-8226 leukemia) was 41.5 nM. The GI50 (SF-539 CNS) was 167 nM, the TGI (SF-539 CNS) was 305 nM and the GI50 (SK-MEL-5 melanoma) was 34.9 nM. It also gave a TGI (SK-MEL-5 melanoma) of 106 nM, a GI50 (UACC-62 melanoma) of 129 nM and a TGI (UACC-62 melanoma) of 258 nM. For the same molecule, the GI50 (HOP-62 NSCLC) was 167 nM, the TGI (HOP-62 NSCLC) was 305 nM and the GI50 (SR leukemia) was 115 nM. It also gave a TGI (SR leukemia) of 238 nM, a GI50 (TK-10 renal) of 179 nM and a TGI (TK-10 renal) of 362 nM. The GI50 (HCT-15 colon) was 155 nM, the TGI (HCT-15 colon) was 295 nM and the GI50 (M14 melanoma) was 170 nM. It also gave a TGI (M14 melanoma) of 309 nM, a GI50 (BT-549 breast) of 193 nM and a TGI (BT-549 breast) of 342 nM. It also gave a GI50 (UACC-257 melanoma) of 173 nM, a TGI (UACC-257 melanoma) of 313 nM and a GI50 (NCI-H226 lung) of 102 nM. It also gave a TGI (NCI-H226 lung) of 220 nM, a GI50 (LOX IMVI melanoma) of 101 nM and a TGI (LOX IMVI melanoma) of 220 nM. The GI50 (HS 578T breast) was 78.8 nM, the TGI (HS 578T breast) was 204 nM and the GI50 (SNB-75 CNS) was 194 nM. For the same molecule, the TGI (SNB-75 CNS) was 338 nM, the GI50 (SK-OV-3 ovarian) was 246 nM and the TGI (SK-OV-3 ovarian) was 497 nM. For the same molecule, the GI50 (RXF 393 renal) was 78.5 nM, the TGI (RXF 393 renal) was 206 nM and the GI50 (NCI/ADR-RES ovarian) was 182 nM. For the same molecule, the TGI (NCI/ADR-RES ovarian) was 323 nM, the GI50 (HCC-2998 colon) was 166 nM and the TGI (HCC-2998 colon) was 305 nM. For the same molecule, the GI50 (UO-31 renal) was 171 nM, the TGI (UO-31 renal) was 318 nM and the GI50 (SF-295 CNS) was 154 nM. For the same molecule, the TGI (SF-295 CNS) was 290 nM, the GI50 (SF-268 CNS) was 174 nM and the TGI (SF-268 CNS) was 313 nM. The GI50 (EKVX NSCLC) was 162 nM, the TGI (EKVX NSCLC) was 303 nM and the GI50 (NCI-H23 lung) was 134 nM. For the same molecule, the TGI (NCI-H23 lung) was 263 nM, the GI50 (COLO 205 colon) was 193 nM and the TGI (COLO 205 colon) was 339 nM. For the same molecule, the GI50 (HT29 colon) was 168 nM, the TGI (HT29 colon) was 310 nM and the GI50 (HL-60(TB) leukemia) was 162 nM. The TGI (HL-60(TB) leukemia) was 300 nM, the GI50 (MDA-MB-231 breast) was 181 nM and the TGI (MDA-MB-231 breast) was 323 nM. For the same molecule, the GI50 (SW-620 colon) was 176 nM, the TGI (SW-620 colon) was 316 nM and the GI50 (MCF7 breast) was 142 nM. The TGI (MCF7 breast) was 343 nM, the GI50 (NCI-H322M lung) was 200 nM and the TGI (NCI-H322M lung) was 374 nM. The GI50 (MDA-MB-435 melanoma) was 178 nM, the TGI (MDA-MB-435 melanoma) was 320 nM and the GI50 (MOLT-4 leukemia) was 150 nM. It also gave a TGI (MOLT-4 leukemia) of 284 nM, a GI50 (HOP-92 NSCLC) of 154 nM and a TGI (HOP-92 NSCLC) of 290 nM. It also gave a GI50 (MDA-MB-468 breast) of 223 nM, a TGI (MDA-MB-468 breast) of 369 nM and a GI50 (SN12C renal) of 175 nM. For the same molecule, the TGI (SN12C renal) was 315 nM, the GI50 (OVCAR-8 ovarian) was 159 nM and the TGI (OVCAR-8 ovarian) was 296 nM. The GI50 (OVCAR-4 ovarian) was 184 nM, the TGI (OVCAR-4 ovarian) was 325 nM and the GI50 (CAKI-1 renal) was 170 nM. For the same molecule, the TGI (CAKI-1 renal) was 317 nM, the GI50 (ACHN renal) was 157 nM and the TGI (ACHN renal) was 397 nM. The GI50 (NCI-H460 NSCLC) was 177 nM, the TGI (NCI-H460 NSCLC) was 324 nM and the GI50 (KM12 colon) was 168 nM. For the same molecule, the TGI (KM12 colon) was 310 nM, the GI50 (IGROV1 ovarian) was 168 nM and the TGI (IGROV1 ovarian) was 315 nM. The GI50 (A498 renal) was 162 nM, the TGI (A498 renal) was 303 nM and the GI50 (OVCAR-5 ovarian) was 183 nM. It also gave a TGI (OVCAR-5 ovarian) of 326 nM, a GI50 (NCI-H522 lung) of 125 nM and a TGI (NCI-H522 lung) of 252 nM. For the same molecule, the GI50 (K-562 leukemia) was 134 nM, the TGI (K-562 leukemia) was 269 nM and the GI50 (PC-3 prostate) was 188 nM. For the same molecule, the TGI (PC-3 prostate) was 331 nM, the GI50 (A549 NSCLC) was 182 nM and the TGI (A549 NSCLC) was 339 nM. The GI50 (OVCAR-3 ovarian) was 138 nM, the TGI (OVCAR-3 ovarian) was 270 nM and the GI50 (DU-145 prostate) was 195 nM. For the same molecule, the TGI (DU-145 prostate) was 351 nM, the GI50 (SNB-19 CNS) was 191 nM and the TGI (SNB-19 CNS) was 336 nM. It also gave a GI50 (T-47D breast) of 162 nM, a TGI (T-47D breast) of 299 nM and a GI50 ([…]-0 renal) of 173 nM. For the same molecule, the TGI (786-0 renal) was 314 nM, the GI50 (CCRF-CEM leukemia) was 162 nM and the TGI (CCRF-CEM leukemia) was 299 nM.
